Measurements published in patent publication US7015207B2, “Use of N-acetyl-D-glucosamine in the manufacture of pharmaceutical useful for preventing and treating sexual disorder” (Third Military Medical University, Chinese People's …, priority 2001, dated 2006).

Experiments:
sexual disfunction [1] = assay: Test for volunteers (voluntary patient with disfunction for more than ten years); format: in vivo, human; settings: one voluntary patient, 12 capsules (500 mg/grain) by oral in three days
Proteus Mirabilis = assay: Promoting wave test (bacterial bio-wave growth model); format: cell-based; settings: final concentration of 0.5% on LB plate, 37° C.
Source text: The following experimental examples are used to illustrate the promoting wave function, low toxicity and effectiveness for preventing and treating the sexual disfunction of the compound of the present invention (the compound of formula (I)). • I. Promoting wave test of the compound of formula (I) • 1. Experimental materials and method: • 1.1 Samples: pure compound of formula (I) • 1.2 Experimental materials: […]
Strain: Proteus Mirabilis (which should comply with the following biological reaction characteristics: dynamics (+), urease (+), lactose (−), glucose (+), H2S (−), phenylalanine deaminase (+).
Culture medium: modified LB culture medium (the component of the composition are: trytones of 1%, yeast extract of 0.5%, sodium chloride 1%, glucose of 0.1%, TTC of 0.002% and pH=7.2˜7.4). • 1.3 Experimental method:
Experimental results and evaluation:
The experiment adopts a bio-wave model which is used to research the promoting wave function of the compound of formula (I). […] Toxicological test of the compound of formula (I), including: • 1. acute toxicity test: including tests of administrating medicine by oral, intravenous injection and maximum limit amount for administration; • 2. […]

sexual disfunction [2] = assay: Clinic tests in male patients with sexual disfunction; format: in vivo, human; settings: two weeks
Method: 32 examples of male patients were picked out, who had been repeatedly treated for sexual disfunction with current treatment method, but these treatments were failed, the patients are classified clinically into heavy, medium and light degree disease, separately administrated with N-acetyl-D-glucosamine in the form of capsule by oral (500 mg/day) and alcoholic solution (50 mg/1000 ml) by oral (10 ml/day), using two weeks as a period of treatment, and before and after the administration, and comparing the condition of the patient's symptom by detecting luteinizing hormone (LH), follicular stimulating hormone (FSH), prolactin (PRL), testosterone (T), estradiol (E2) and local blood flux. […] After treatment, the curative effect was steady and could be maintained for a long time.

[3] = 32 male patients, capsule 500 mg/day or alcoholic solution 10 ml/day by oral

## CC(=O)N[C@@H]1[C@@H](O)[C@H](O)[C@@H](CO)O[C@H]1O [N-acetyl-D-glucosamine]
Sexual disfunction [1]
  duration of the effect: keep normal over two years
  sexual function after treatment: sexual function was recovered to normal
Proteus Mirabilis
  promoting wave function (wave pattern of concentric rings compared with control): many fine waves on each ring emerged
Sexual disfunction [2]; [3]
  cure rate: 72%
  total effective rate: 90%
Sexual disfunction [2]; of 32 male patients, oral
  patients in whom treatment failed: 2 patients
  patients turned from heavy and medium degree into light degree: 7 patient
  patients who became normal after treatment: 23 patients
